# Test results taken from US20110118236A1, “HETEROCYCLIC COMPOUND” (priority 2008, published 2011).
# Biological target: T1, AMPA receptor (human GluR1 flip/stargazin expressed in CHO-K1 cells) (Homo sapiens, UniProt P42261)
# T1 construct: expressed in transfected cells; host or cells: CHO-K1
# Assay: Assay of AMPA receptor potentiation by compounds, using calcium influx as an indicator
# Format: cell-based
# Conditions: compound 30 μM with glutamic acid final concentration 3 mM, 100% = glutamic acid 3 mM + 300 μM cyclothiazide, 0% = glutamic acid only, change over 3 minutes
# Description: (1) Construction of Expression Genes
# Human GluR1 flip cDNA was amplified by PGR using the forward primer ACTGAATTCGCC […] (SEQ ID: 1), and the reverse primer CCGCGGC […] (SEQ ID: 2), which had been artificially synthesized using human brain-derived cDNA (BD Bioscience) as template. The amplified product was digested with the restriction enzymes EcoRI and NotI. (Takara Shuzo Co., Ltd.), and was then incorporated at the same site of peDNA3.1(+) (Invitrogen) to construct; the pcDNA3.1(+)/human GluR1 flip gene. Human stargazin cDNA was amplified by PCR using the forward primer GGTC TCGAGOCCACCATGGOGCTGTTTGATCGAGGTGTTCA (SEQ ID: δ 3), and the reverse primer […] (SEQ ID: 4), which had been artificially synthesized using human hippocampal cDNA as template. The amplified product was digested with the restriction enzymes XhoI and BamHI (Takara Shuzo Co., Ltd.), and was then incorporated at the same site of pcDNA3.1(−) (Invitrogen) to construct the pcDN.A3.1. Zeo(−)/human stargazin gene.
# (2) Construction of Cells Expressing GluR1 Flip/Stargazin
# CHO-K1 cells passaged in culture media (Ham's F12 media (Invitrogen) supplemented with […] inactivated fetal bovine serum (Morgate), penicillin, and streptomycin (Invitrogen)) were separated using 0.05% trypsin diluted with D-PBS(−), and 0.53 mM EDTA (Invitrogen). The separated cells were suspended in culture media and harvested by centrifugation at 1,000 rpm. The harvested cells were re-suspended in D-PBS(−) and introduced into a 0.4 cm electroporation cuvette (BioRad). The pcDNA3.1(+)/human GluR1 flip gene (5 μg) and pcDNA3.1 Zeo(−)/human stargazin gene (15 μg) were added, and were introduced into the CHO-K1 cells using a Gene Pulser II (BioRad) at 950 μFd and […]. The cells were incubated overnight in culture media, and on the next day 96-well plates were seeded with 250 cells/well using selection media (Zeocin (Invitrogen) in a concentration of 250 μg/mL in culture media). Drug resistant clones were selected, and clones expressing GluR1 flip/stargazin were selected by the following assay using calcium influx as an indicator.
# (3) Assay of AMPA receptor potentiation by compounds, using calcium influx as an indicator 96-well black-bottomed clear plates (Costar) were seeded with the CHO-K1/GluR1 flip/stargazin expressing cells (2×10^4 cells/well), and were incubated for 2 days at 37° C. in a CO2 incubator (Sanyo). The cell plate media was removed, and assay buffer A (D-MEM (Invitrogen), 0.1% BSA (Serological Protein, Inc.), and 20 mM HEPES (invitrogen)) was added to a concentration of 50 μL/well. A calcium indicator (Calcium Kit B-Fluo4 for TKB, Dojindo Laboratories) containing 2.5 mM probenecid (Dojindo Laboratories) was added to a concentration of 50 μL/well, and the plates were allowed to stand for 1 hour at 37° C. in a CO2 incubator. The cell plates were set up on a CellLux (PerkinElmer), a 50 pt mixture of 9 mM glutamic acid diluted (final concentration 3 mM) with assay buffer B (HBSS (Invitrogen), 0.1% BSA, and 20 mM HEPES) and the compound to be tested (concentration of compound to be detected: 30 μM) was added, and the change in the level of fluorescence over a period of 3 minutes was determined. The compound activity was calculated using the following equation, wherein the change in fluorescence in wells containing glutamic acid (final concentration 3 mM) and 300 μM cyclothiazide (TOCRIS) was defined as 100%, and the change in fluorescence in wells containing only glutamic acid (final concentration 3 mm) was defined as 0%.
# Activity (%)=(X−C)/(T−C)×1.00
# T: change in fluorescence in wells containing glutamic acid (final concentration 3 mM) and 300 μM cyclothiazide C: change in fluorescence in wells containing only glutamic acid (final concentration 3 mM) X: change in fluorescence in wells containing compound to be detected
# T1 sequence (P42261 19-906 isoform P42261-2 limits assumed): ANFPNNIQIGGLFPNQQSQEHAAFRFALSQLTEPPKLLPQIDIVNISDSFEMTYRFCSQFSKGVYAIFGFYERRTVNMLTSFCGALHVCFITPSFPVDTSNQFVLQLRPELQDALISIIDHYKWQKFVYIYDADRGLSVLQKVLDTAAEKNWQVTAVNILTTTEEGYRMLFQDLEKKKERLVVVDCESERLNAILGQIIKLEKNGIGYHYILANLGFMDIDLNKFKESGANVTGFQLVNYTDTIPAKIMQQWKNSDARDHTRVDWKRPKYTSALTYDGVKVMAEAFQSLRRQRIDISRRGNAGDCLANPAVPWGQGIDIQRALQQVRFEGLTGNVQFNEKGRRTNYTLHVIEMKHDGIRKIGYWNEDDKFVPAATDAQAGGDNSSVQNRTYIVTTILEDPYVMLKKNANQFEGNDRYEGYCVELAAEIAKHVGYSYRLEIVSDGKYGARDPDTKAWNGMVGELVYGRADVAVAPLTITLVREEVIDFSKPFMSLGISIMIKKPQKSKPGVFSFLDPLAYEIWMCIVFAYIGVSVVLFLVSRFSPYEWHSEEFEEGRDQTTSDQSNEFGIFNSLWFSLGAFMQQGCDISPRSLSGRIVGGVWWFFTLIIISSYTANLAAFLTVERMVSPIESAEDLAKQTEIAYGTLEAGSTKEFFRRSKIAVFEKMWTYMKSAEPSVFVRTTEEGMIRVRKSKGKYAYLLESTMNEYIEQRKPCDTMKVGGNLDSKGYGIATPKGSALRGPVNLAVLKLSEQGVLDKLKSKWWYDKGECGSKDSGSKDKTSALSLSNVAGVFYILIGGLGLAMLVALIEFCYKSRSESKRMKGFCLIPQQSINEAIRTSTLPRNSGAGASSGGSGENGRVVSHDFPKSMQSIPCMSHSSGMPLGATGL
# T1 sequence (Q9Y698 whole entry partner): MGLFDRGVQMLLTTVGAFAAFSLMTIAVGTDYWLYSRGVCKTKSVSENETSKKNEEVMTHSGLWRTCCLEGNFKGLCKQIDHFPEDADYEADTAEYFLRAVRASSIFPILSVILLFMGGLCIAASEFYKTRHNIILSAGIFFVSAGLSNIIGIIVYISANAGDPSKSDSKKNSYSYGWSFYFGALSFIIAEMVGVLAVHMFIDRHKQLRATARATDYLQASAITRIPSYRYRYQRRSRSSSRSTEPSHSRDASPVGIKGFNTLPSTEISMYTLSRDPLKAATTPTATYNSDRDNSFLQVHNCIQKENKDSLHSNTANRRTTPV
row,SMILES,"Activity (%) of AMPA receptor potentiation (change in fluorescence, calcium influx)"
1,"O=C(c1csc(Cn2nc(C(F)(F)F)c3c2CCCC3)n1)N1CCCC1 [Example 145, 1-{[4-(Pyrrolidin-1-ylcarbonyl)-1,3-thiazol-2-yl]methyl}-3-(trifluoromethyl)-4,5,6,7-tetrahydro-1-H-indazole]",85%
2,"NC(=O)c1c(NC(=O)Cn2nc(C(F)(F)F)c3c2CNCC3)sc2c1CCCC2 [Example 185, 2-({[3-(Trifluoromethyl)-4,5,6,7-tetrahydro-1H-pyrazolo[3,4-c]pyridin-1-yl]acetyl}amino)-4,5,6,7-tetrahydro-1-benzothiophene-3-carboxamide]",88%
3,"NC(=O)c1c(NC(=O)Cn2nc(C(F)(F)F)c3c2CCNC3)sc2c1CCCC2 [Example 190, 2-({[3-(Trifluoromethyl)-4,5,6,7-tetrahydro-1H-pyrazolo[4,3-c]pyridin-1-yl]acetyl}amino)-4,5,6,7-tetrahydro-1-benzothiophene-3-carboxamide]",70%
4,"COc1ccc(Cl)cc1NC(=O)Cn1nc(C(F)(F)F)c2c1CNCC2 [Example 196, N-(5-Chloro-2-methoxyphenyl)-2-[3-(trifluoromethyl)-4,5,6,7-tetrahydro-1H-pyrazolo[3,4-c]pyridin-1-yl]acetamide]",80%
5,"COc1ccc(Cl)cc1NC(=O)Cn1nc(C(F)(F)F)c2c1CCN(C(C)=O)C2 [Example 226, 2-[5-Acetyl-3-(trifluoromethyl)-4,5,6,7-tetrahydro-1H-pyrazolo[4,3-c]pyridin-1-yl]-N-(5-chloro-2-methoxyphenyl)acetamide]",74%
6,"CNC(=O)N1CCc2c(c(C(F)(F)F)nn2CC(=O)Nc2cc(Cl)ccc2OC)C1 [Example 229, 1-{2-[(5-Chloro-2-methoxyphenyl)amino]-2-oxoethyl}-N-methyl-3-(trifluoromethyl)-1,4,6,7-tetrahydro-5H-pyrazolo[4,3-c]pyridine-5-carboxamide]",78%
7,"FC(F)(F)c1nn(Cc2nnc(-c3cccs3)o2)c2c1CCCC2 [Example 272, 1-[(5-Thiophen-2-yl-1,3,4-oxadiazol-2-yl)methyl]-3-(trifluoromethyl)-4,5,6,7-tetrahydro-1H-indazole]",86%
8,"Cc1cc(C)n2ncc(-c3noc(Cn4nc(C(F)(F)F)c5c4CCCC5)n3)c2n1 [Example 276, 5,7-Dimethyl-3-(5-{[3-(trifluoromethyl)-4,5,6,7-tetrahydro-1H-indazol-1-yl]methyl}-1,2,4-oxadiazol-3-yl)pyrazolo[1,5-a]pyrimidine]",79%
9,"FC(F)(F)c1nn(Cc2nc(-c3cnccn3)no2)c2c1CCCC2 [Example 277, 1-[(3-Pyrazin-2-yl-1,2,4-oxadiazol-5-yl)methyl]-3-(trifluoromethyl)-4,5,6,7-tetrahydro-1H-indazole]",75%
10,Cc1cc(C(F)(F)F)n2ncc(-c3noc(Cn4nc(C(F)(F)F)c5c4CCC5)n3)c2n1 [Example 278],82%
11,"FC(F)(F)c1nn(Cc2nc(-c3cccs3)no2)c2c1COCC2 [Example 279, 1-[(3-Thiophen-2-yl-1,2,4-oxadiazol-5-yl)-methyl]-3-(trifluoromethyl)-1,4,6,7-tetrahydropyrano[4,3-c]pyrazole]",62%
12,"CSc1sc(C(=O)NCCn2nc(C(F)(F)F)c3c2CCCC3)c2nc(C)n(C)c12 [Example 280, 1,2-Dimethyl-6-(methylsulfanyl)-N-{2-[3-(trifluoromethyl)-4,5,6,7-tetrahydro-1H-indazol-1-yl]ethyl}-1H-thieno[3,4-d]imidazole-4-carboxamide]",86%
13,"Cc1cc(C(F)(F)F)n2ncc(-c3noc(Cn4nc(C(F)(F)F)c5c4CCCC5)n3)c2n1 [Example 283, 5-Methyl-7-(trifluoromethyl)-3-(5-{[3-(trifluoromethyl)-4,5,6,7-tetrahydro-1H-indazol-1-yl]methyl}-1,2,4-oxadiazol-3-yl)pyrazolo[1,5-a]pyrimidine]",76%
14,"CSc1sc(C(=O)NCCn2nc(C(F)(F)F)c3c2CCCC3)c2c1C(O)CCC2 (centres unmarked) [Example 287, 4-Hydroxy-3-(methylsulfanyl)-N-{2-[3-(trifluoromethyl)-4,5,6,7-tetrahydro-1H-indazol-1-yl]ethyl}-4,5,6,7-tetrahydro-2-benzothiophene-1-carboxamide]",68%
